Experimental data taken from patent US11033535B2, “Oxadiazoles and thiadiazoles as TGF-β inhibitors” (Southern Research Institute, priority 2017, dated 2021).
Read-outs that look alike come from different tables or passages of the source.

Assay: Pharmacokinetic evaluation following a single oral and intravenous administration
Type: in vivo, CD1 mouse
Details: CD1, mouse, plasma; for C0 / AUC(0-inf) / AUC(0-t) / MRT inf / half-life / Vd: Table 4, IV Dose: 1 mg/kg
Description: A NMP stock solution was prepared by adding 1.136 mL of NMP to 5.68 mg of compound no. 42140 with vortexing and sonification, to obtain a solution with a concentration at 5 mg/mL of 42140:01. Next, to prepare an intravenous formulation, 0.100 mL of the 5 mg/mL stock solution was placed in a new vial. 0.100 mL of NMP and 0.400 mL of PEG400 were added with vortexing and sonification, followed by addition of 0.400 mL of saline with vortexing and sonification. […] 42140:01. Alternatively, to prepare an oral formulation, 0.200 mL of the 5 mg/mL stock solution was placed in a new vial. 0.400 mL of PEG400 was added with vortexing and sonification, followed by addition of 0.400 mL of saline with vortexing and sonifiction. […] 42140:01.
(§1) Briefly, the desired serial concentrations of working solutions were achieved by diluting a stock solution of the compound with 100% acetonitrile. 3 μL of working solutions (5, 10, 20, 50, 100, 500, 1000, 5000, 10000 ng/mL) were added to 30 μL of the blank CD1 mouse plasma to achieve calibration standards of 0.5-1000 ng/mL (0.5, 1, 2, 5, 10, 50, 100, 500, 1000 ng/mL) in a total volume of 33 μL. Five quality control samples at 1 ng/mL, 2 ng/mL, 5 ng/mL, 50 ng/mL and 800 ng/mL for plasma were prepared independently of those used for the calibration curves. These QC samples were prepared on the day of analysis in the same way as calibration standards.
Next, 33 μL standards, 33 μL QC samples, and 33 μL unknown samples (30 μL plasma with 3 μL blank solution) were added to 200 μL of acetonitrile containing IS mixture for precipitating protein, respectively. Then the samples were vortexed for 30 s. After centrifugation at 4 degree Celsius, 4000 rpm for 15 min, 3 μL of supernatant was injected into the LC/MS/MS system for quantitative analysis.
HPLC analysis was performed using 100% water with 0.1% formic acid (Solution A) and 100% acetonitrile with 0.1% formic acid (Solution B) with a flow rate of 0.6 mL/min.
A NMP stock solution was prepared by adding 2.092 mL of NMP to 10.46 mg of […] with vortexing and sonification, to obtain a solution with a concentration at 5 mg/mL of […]. Next, to prepare an intravenous formulation, 0.100 mL of the 5 mg/mL stock solution was placed in a new vial. 0.100 mL of NMP and 0.400 mL of PEG400 were added with vortexing and sonification, followed by addition of 0.400 mL of saline with vortexing and sonification. […] 42320:01. Alternatively, to prepare an oral formulation, 0.200 mL of the 5 mg/mL stock solution was placed in a new vial. 0.400 mL of PEG400 was added with vortexing and sonification, followed by addition of 0.400 mL of saline with vortexing and sonifiction. […] 42320:01.
as §1, with “50 ng/mL,” for “50 ng/mL”

[1] = iv, 1 mg/kg, Table 3, IV Dose: 1 mg/kg, Mouse 1, read-out: Concentration
[2] = iv, 1 mg/kg, Table 3, IV Dose: 1 mg/kg, Mouse 2, read-out: Concentration
[3] = iv, 1 mg/kg, Table 3, IV Dose: 1 mg/kg, Mouse 3, read-out: Concentration
[4] = iv, 1 mg/kg, Table 3, IV Dose: 1 mg/kg, mean, read-out: Concentration, Mean
[5] = po, 5 mg/kg, Table 5, PO Dose: 5 mg/kg, Mouse 4, read-out: Concentration
[6] = po, 5 mg/kg, Table 5, PO Dose: 5 mg/kg, Mouse 5, read-out: Concentration
[7] = po, 5 mg/kg, Table 5, PO Dose: 5 mg/kg, Mouse 6, read-out: Concentration
[8] = po, 5 mg/kg, Table 5, PO Dose: 5 mg/kg, mean, read-out: Concentration, Mean

concentration at 5 min [1]: 96.6 ng/mL | concentration at 5 min [2]: 89.5 ng/mL | concentration at 5 min [3]: 86.3 ng/mL | concentration at 5 min [4]: 90.8 ng/mL | concentration at 0.25 h [1]: 81.5 ng/mL | concentration at 0.25 h [2]: 65 ng/mL | concentration at 0.25 h [3]: 74.2 ng/mL | concentration at 0.25 h [4]: 73.6 ng/mL | concentration at 0.5 h [1]: 57.2 ng/mL | concentration at 0.5 h [2]: 53.8 ng/mL | concentration at 0.5 h [3]: 48.1 ng/mL | concentration at 0.5 h [4]: 53 ng/mL | concentration at 1 h [1]: 57.8 ng/mL | concentration at 1 h [2]: 42.1 ng/mL | concentration at 1 h [3]: 43.7 ng/mL | concentration at 1 h [4]: 47.9 ng/mL | concentration at 2 h [1]: 43.7 ng/mL | concentration at 2 h [2]: 34.1 ng/mL | concentration at 2 h [3]: 39.9 ng/mL | concentration at 2 h [4]: 39.2 ng/mL | concentration at 4 h [1]: 26.1 ng/mL | concentration at 4 h [2]: 18.8 ng/mL | concentration at 4 h [3]: 23.3 ng/mL | concentration at 4 h [4]: 22.7 ng/mL | concentration at 8 h [1]: 16.9 ng/mL | concentration at 8 h [2]: 15.5 ng/mL | concentration at 8 h [3]: 14.9 ng/mL | concentration at 8 h [4]: 15.8 ng/mL | concentration at 24 h [1]: 6.4 ng/mL | concentration at 24 h [2]: 5.76 ng/mL | concentration at 24 h [3]: 4.27 ng/mL | concentration at 24 h [4]: 5.48 ng/mL | C0 (iv, 1 mg/kg, Mouse 1): 105 ng/mL | AUC(0-inf) (iv, 1 mg/kg, Mouse 1, read-out: AUCInf): 557 ng·h/mL | AUC(0-t) (iv, 1 mg/kg, Mouse 1, read-out: AUClast): 462 ng·h/mL | MRT inf (iv, 1 mg/kg, Mouse 1, read-out: MRTInf—obs): 12.1 h | half-life (iv, 1 mg/kg, Mouse 1, read-out: T1/2 (converted)): 10.3 h | Vd (iv, 1 mg/kg, Mouse 1, read-out: Vss—obs): 21.8 L/kg | C0 (iv, 1 mg/kg, Mouse 2): 105 ng/mL | AUC(0-inf) (iv, 1 mg/kg, Mouse 2, read-out: AUCInf): 486 ng·h/mL | AUC(0-t) (iv, 1 mg/kg, Mouse 2, read-out: AUClast): 389 ng·h/mL | MRT inf (iv, 1 mg/kg, Mouse 2, read-out: MRTInf—obs): 13.7 h | half-life (iv, 1 mg/kg, Mouse 2, read-out: T1/2 (converted)): 11.6 h | Vd (iv, 1 mg/kg, Mouse 2, read-out: Vss—obs): 28.1 L/kg | C0 (iv, 1 mg/kg, Mouse 3): 93 ng/mL | AUC(0-inf) (iv, 1 mg/kg, Mouse 3, read-out: AUCInf): 445 ng·h/mL | AUC(0-t) (iv, 1 mg/kg, Mouse 3, read-out: AUClast): 394 ng·h/mL | MRT inf (iv, 1 mg/kg, Mouse 3, read-out: MRTInf—obs): 9.69 h | half-life (iv, 1 mg/kg, Mouse 3, read-out: T1/2 (converted)): 8.36 h | Vd (iv, 1 mg/kg, Mouse 3, read-out: Vss—obs): 21.8 L/kg | AUC(0-inf) (iv, 1 mg/kg, mean, read-out: AUCInf, Mean): 496 ng·h/mL | AUC(0-t) (iv, 1 mg/kg, mean, read-out: AUClast, Mean): 415 ng·h/mL | MRT inf (iv, 1 mg/kg, mean, read-out: MRTInf—obs, Mean): 11.8 h | half-life (iv, 1 mg/kg, mean, read-out: T1/2, Mean (converted)): 10.1 h | Vd (iv, 1 mg/kg, mean, read-out: Vss—obs, Mean): 23.9 L/kg | concentration at 0.25 h [5]: 54.5 ng/mL | concentration at 0.25 h [6]: 60.6 ng/mL | concentration at 0.25 h [7]: 73.1 ng/mL | concentration at 0.25 h [8]: 62.7 ng/mL | concentration at 0.5 h [5]: 92.2 ng/mL | concentration at 0.5 h [6]: 91.9 ng/mL | concentration at 0.5 h [7]: 106 ng/mL | concentration at 0.5 h [8]: 97 ng/mL | concentration at 1 h [5]: 117 ng/mL
SMILES: CNCc1ccc(C[C@H](NC(C)=O)c2nnc(-c3cccc(OC(F)(F)F)c3)s2)cc1 [Compound 42140, N-(2-(4-((methylamino)methyl)phenyl)-1-(5-(3-(trifluoromethoxy)phenyl)-1,3,4-thiadiazol-2-yl)ethyl)acetamide]
